Patent publication US11780839B2, “Compounds for treating Huntington's disease” (PTC THERAPEUTICS, INC., priority 2018, dated 2023)
pIC50: −log10 of the molar value.

Tested on: Endogenous Huntingtin Protein
Experiment: Endogenous Huntingtin Protein Assay (ELISA-based Meso Scale Discovery electrochemiluminescence)
Assay type: cell-based
Details: MSD electrochemiluminescence, Table 1
Method in brief: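 Huntingtin was captured overnight at 4 °C on plates coated with 1 μg/mL MW1 (polyQ-expanded) or MAB2166 antibody and BSA-blocked. Detection used a rabbit monoclonal and then a SULFO-TAG goat anti-rabbit antibody (0.25 μg/mL, 1 h each, room temperature). Signal was read by electrochemiluminescence.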

pIC50	Structure (SMILES)
≥ 7.00	Cn1cc(-c2ccc(-c3cnc(N4CC[C@H](NC5CCC5)C4)nn3)c(O)c2)cn1 [Cpd 407, 2-{3-[(3S)-3-(cyclobutylamino)pyrrolidin-1-yl]-1,2,4-triazin-6-yl}-5-(1-methyl-1H-pyrazol-4-yl)phenol]
≥ 7.00	Oc1cc(-c2cn[nH]c2)ccc1-c1cnc(N2CCC(NC3CCC(F)(F)C3)C2)nn1 (stereo not drawn) [Cpd 409, 2-(3-{3-[(3,3-difluorocyclopentyl)amino]pyrrolidin-1-yl}-1,2,4-triazin-6-yl)-5-(1H-pyrazol-4-yl)phenol]
≥ 7.00	CN(C)CC1CCN(c2ncc(-c3ccc(-c4cn[nH]c4)cc3O)nn2)C1 (stereo not drawn) [Cpd 410, 2-(3-{3-[(dimethylamino)methyl]pyrrolidin-1-yl}-1,2,4-triazin-6-yl)-5-(1H-pyrazol-4-yl)phenol]
≥ 7.00	CNCC1CCN(c2ncc(-c3ccc(-c4cn[nH]c4)cc3O)nn2)C1 (stereo not drawn) [Cpd 413, 2-(3-{3-[(methylamino)methyl]pyrrolidin-1-yl}-1,2,4-triazin-6-yl)-5-(1H-pyrazol-4-yl)phenol]
≥ 7.00	CC(C)NC(C)C1CCN(c2ncc(-c3ccc(-c4cn[nH]c4)cc3O)nn2)C1 (stereo not drawn) [Cpd 414, 2-[3-(3-{1-[(propan-2-yl)amino]ethyl}pyrrolidin-1-yl)-1,2,4-triazin-6-yl]-5-(1H-pyrazol-4-yl)phenol]
≥ 7.00	Oc1cc(-c2cn[nH]c2)ccc1-c1cnc(N2CCC(CNC3CCC3)C2)nn1 (stereo not drawn) [Cpd 415, 2-(3-{3-[(cyclobutylamino)methyl]pyrrolidin-1-yl}-1,2,4-triazin-6-yl)-5-(1H-pyrazol-4-yl)phenol]
≥ 7.00	Cn1cc(-c2ccc(-c3cnc(N4CCC(CNC5CCC5)C4)nn3)c(O)c2)cn1 (stereo not drawn) [Cpd 416, 2-(3-{3-[(cyclobutylamino)methyl}pyrrolidin-1-yl}-1,2,4-triazin-6-yl)-5-(1-methyl-1H-pyrazol-4-yl)phenol]
≥ 7.00	CC(C)(C)NC1CCN(c2ncc(-c3ccc(-c4cn[nH]c4)c(F)c3O)nn2)C1 (stereo not drawn) [Cpd 418, 6-{3-[3-(tert-butylamino)pyrrolidin-1-yl]-1,2,4-triazin-6-yl}-2-fluoro-3-(1H-pyrazol-4-yl)phenol]
≥ 7.00	CC1(C)CC(Oc2cnc(-c3ccc(-c4cn[nH]c4)cc3O)nn2)CC(C)(C)N1 [Cpd 419, 5-(1H-pyrazol-4-yl)-2-{6-[(2,2,6,6-tetramethylpiperidin-4-yl)oxy]-1,2,4-triazin-3-yl}phenol]
≥ 7.00	Oc1cc(-c2cn[nH]c2)ccc1-c1cnc(N2CCC(NC3CCC(F)C3)C2)nn1 (stereo not drawn) [Cpd 420, 2-(3-{3-[(3-fluorocyclopentyl)amino]pyrrolidin-1-yl}-1,2,4-triazin-6-yl)-5-(1H-pyrazol-4-yl)phenol]
≥ 7.00	Oc1cc(-c2cn[nH]c2)ccc1-c1cnc(N2CCC(C3(NC4CCOCC4)CC3)C2)nn1 (stereo not drawn) [Cpd 421, 2-[3-(3-{1-[(oxan-4-yl)amino]cyclopropyl}pyrrolidin-1-yl)-1,2,4-triazin-6-yl]-5-(1H-pyrazol-4-yl)phenol]
≥ 7.00	CC(C)NC1(C)CCN(c2ncc(-c3ccc(-c4cnn(C)c4)cc3O)nn2)C1 (stereo not drawn) [Cpd 422]
≥ 7.00	CC1(C)CC(Nc2cnc(-c3ccc(-c4cn[nH]c4)cc3O)nn2)C(F)C(C)(C)N1 (stereo not drawn) [Cpd 423, 2-{6-[(3-fluoro-2,2,6,6-tetramethylpiperidin-4-yl)amino]-1,2,4-triazin-3-yl}-5-(1H-pyrazol-4-yl)phenol]
≥ 7.00	[2H]C([2H])([2H])n1cc(-c2ccc(-c3ncc(NC4CC(C)(C)NC(C)(C)C4)nn3)c(O)c2)cn1 [Cpd 424, 5-[1-(^2H3)methyl-1H-pyrazol-4-yl]-2-{6-[(2,2,6,6-tetramethylpiperidin-4-yl)amino]-1,2,4-triazin-3-yl}phenol]

Structure (SMILES)	pIC50
CN(c1ncc(-c2ccc(-c3cnn(C)c3)cc2O)nn1)[C@H]1C[C@]2(C)CC[C@](C)(C1)N2 [Cpd 408]	≥ 7.00
CN(c1cnc(-c2ccc(-c3ccncn3)cc2O)nn1)C1CC(C)(C)NC(C)(C)C1 [Cpd 411, 2-{6-[methyl(2,2,6,6-tetramethylpiperidin-4-yl)amino]-1,2,4-triazin-3-yl}-5-(pyrimidin-4-yl)phenol]	≥ 7.00
CN(c1cnc(-c2ccc(-c3cnccn3)cc2O)nn1)C1CC(C)(C)NC(C)(C)C1 [Cpd 412, 2-{6-[methyl(2,2,6,6-tetramethylpiperidin-4-yl)amino]-1,2,4-triazin-3-yl}-5-(pyrazin-2-yl)phenol]	≥ 7.00
CN(c1ncc(-c2ccc(-n3nccn3)cc2O)nn1)[C@H]1C[C@]2(C)CC[C@](C)(C1)N2 [Cpd 417]	≥ 7.00
